# Reference: patent US20240309015A1, “Methods for the Treatment of Fibrotic Disease” (SHY Therapeutics, LLC, priority 2021, published 2024)
# What was measured:
# [1] = Observation for overt toxicity in DBA/2J mice; type: in vivo; settings: male DBA/2J mice, single dose, 100 mg/kg IP
# Protocol: Experimental Design: Compound 9 was suspended in 0.5% Hydroxypropyl Methylcellulose (HPMC)/0.1% Tween® 80 to a final concentration of 10 mg/mL. The dosing solutions were prepared prior to the start of the test. Male DBA/2J mice (Jackson Stock No: 000671) were housed in solid bottom cages with standard chow and water ad libitum. Dosing was initiated when animals were 7-8 weeks old. Mice were dosed at a volume of 10 mL/kg by intraperitoneal (IP) injection at 100 mg/kg or vehicle. […] Blood was collected at 15 min, 30 min, 1 h, 2 h, 4 h, 7 h, 16 h, 24 h by cardiac puncture, mixed gently 8 times and put on ice until centrifuged within 30 minutes of collection. The plasma was transferred to a 96-well plate for analysis of test compound levels.
# KRas G12D mutant = assay: Ras GTP Binding Domain Inhibition Assay, KRas G12D mutant; settings: at 20 μM; for KRas G12D mutant + SOS: % inh.: with SOS; for KRas G12D mutant: % inh.: without SOS
# Procedure, shortened: (§1)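 His-tagged GTPases, 10-30 μg/mL in Tris-HCl buffer (pH 7.4 or 7.0, MgCl2, DTT), were immobilised on nickel-coated wells overnight at 4° C. Compounds were added at 20 μM or as serial dilutions for IC50 in 1% DMSO for 3 h at room temperature, ±Sos(556-1049) in the final hour. Bound Cy3/Cy5-GTP (100 nM, 45 min) was read after washing.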
# [2] = Assessment of plasma exposure in DBA/2J mice; type: in vivo, mouse; settings: Group 4: 100 mg/kg PO, Vehicle 2 (Solubilized Lipid)
# [3] = Observation for overt toxicity in D2-mdx mice; type: in vivo; settings: male D2-mdx mice, 100 mg/kg IP daily for 3 days
# Protocol: Experimental Design: Compound 9 was suspended in 0.5% Hydroxypropyl Methylcellulose (HPMC)/0.1% Tween® 80 to a final concentration of 10 mg/mL. The dosing solutions were prepared prior to the start of the test and were stored in the dark and maintained in frozen aliquots. Doses were thawed prior to administration. Male D2-mdx (JAX Stock No: 013141) mice were sourced from The Jackson Laboratory and housed in solid bottom cages with standard chow and water ad libitum. Dosing was initiated when animals were −3 weeks old. Animals were dosed daily by intraperitoneal (IP) injection at 100 mg/kg or vehicle for 3 days. […] Mice were sacrificed by CO2 euthanasia approximately 6 hours after their day 3 dosing. Heart, diaphragm, quadriceps, tibialis anterior (TA) samples were collected at termination on day 3 and snap frozen. These samples were shipped on dry ice for analysis, and were stored at −80° C.
# serum albumin = assay: Albumin western blot of D2-mdx mouse tissues; type: in vivo; settings: D2-mdx mice, 100 mg/kg IP daily for 3 days
# Source text: (§2) The experiment described herein was designed to monitor the effects of Compound 9 on two biomarkers related to fibrosis in D2-mdx mice. The first biomarker is Smad2 phosphorylation, and the second is the levels of serum albumin in the different muscle tissues. Fibrosis causes disruption of the fine transparent tubular sheath which envelops the fibers of skeletal muscles, this can result in various molecules from the blood and interstitial fluid leaking into myofibres. A classic example is serum albumin, which can be identified in tissue sections and considered to be hallmark of myofibre permeability.
# (§3) Experimental Design: Compound 9 was suspended in 0.5% Hydroxypropyl Methylcellulose (HPMC)/0.1% Tween® 80 to a final concentration of 10 mg/mL. […]
# (§4) Tissue protein extraction: Frozen tissues were placed on ice in prechilled tubes with 30 μL/mg with of ice-cold RIPA buffer+Halt™ Protease & Phosphatase Inhibitor Cocktail. […] Supernatant was removed and protein concentration determined by BCA assay.
# (§5) Western blot protocol: Equal amounts of protein (15-50 μg) were separated by SDS-PAGE and transferred to nitrocellulose membranes (Invitrogen by Thermo Fisher Scientific). […] Membranes were blocked with 10% milk and albumin levels were assessed by incubating overnight at 4° C. with albumin antibody (Cell Signaling Technology #4929). […]
# KRas wild type = assay: Ras GTP Binding Domain Inhibition Assay, KRas wild type; settings: at 20 μM
# Procedure, shortened: as §1
# Smad2 phosphorylation = assay: Phospho-Smad2 western blot of D2-mdx mouse tissues; type: in vivo; settings: 100 mg/kg IP daily for 3 days
# Source text: as §2, §3, §4, §5
# Rho-A = assay: Ras GTP Binding Domain Inhibition Assay, Rho-A; settings: at 20 μM
# Procedure, shortened: as §1
# KRas G12C mutant = assay: Ras GTP Binding Domain Inhibition Assay, KRas G12C mutant; settings: at 20 μM
# Procedure, shortened: as §1
structure (smiles),measurement,setting,value
"COCCNc1nc(-c2nccn2C)nc2sc(-c3cccc(OC)c3Cl)c(-c3ccccc3)c12 [Compound 9, 6-(2-Chloro-3-methoxyphenyl)-N-(2-methoxyethyl)-2-(1-methyl-1H-imidazol-2-yl)-5-phenylthieno[2,3-d]pyrimidin-4-amine]",findings of overt toxicity,[1],No findings of overt toxicity were observed
same,KRas G12D mutant + SOS: % inh.,KRas G12D mutant; Table 7,C (C = 46-75% inhibition)
same,KRas G12D mutant + SOS: % inh.,KRas G12D mutant; Table 8,C (C = 46-75% inhibition)
same,KRas G12D mutant: % inh.,KRas G12D mutant; Table 7,C (C = 46-75% inhibition)
same,KRas G12D mutant: % inh.,KRas G12D mutant; Table 8,C (C = 46-75% inhibition)
same,Tmax,[2],4 h
same,findings of overt toxicity,[3],No findings of overt toxicity were observed
same,serum albumin levels in the heart,serum albumin,No changes
same,serum albumin levels in the tibialis anterior and quadricep muscles,serum albumin,clear decrease
same,KRas wild type + SOS: % inh.,KRas wild type; with SOS,D (D = 76-100% inhibition)
same,KRas wild type: % inh.,KRas wild type; without SOS,C (C = 46-75% inhibition)
same,Smad2 phosphorylation in the diaphragm compared to control vehicle mice,Smad2 phosphorylation,inhibition of Smad2 phosphorylation
same,Smad2 phosphorylation in the heart,Smad2 phosphorylation; D2-mdx mice,No changes
same,Rho-A + SOS: % inh.,Rho-A; with SOS,B (B = 26-45% inhibition)
same,Rho-A: % inh.,Rho-A; without SOS,B (B = 26-45% inhibition)
same,KRas G12C mutant + SOS: % inh.,KRas G12C mutant; with SOS,D (D = 76-100% inhibition)
same,KRas G12C mutant: % inh.,KRas G12C mutant; without SOS,B (B = 26-45% inhibition)
